Measured values: patent US6680300B2 (Board of Regents, The University of Texas System, priority 1998, dated 2004)
Values after ≈ are worked out from the molar mass of the structure shown. Values joined by “and” are separate entries in the source; they are usually repeats but may differ in a detail not shown here. Equal entries are not always repeated.

Assays:
[1] = tested on: human carcinoma sensitive (KB) cells; assay: MTT cytotoxicity assay, sensitive KB cells; assay type: cell-based; settings: 72 hours incubation
Experimental: (§1) Compounds synthesized using the methods described above were tested using a standard MTT assay (Green et al., 1984) against human carcinoma sensitive (KB) and multi-drug-resistant (KBV1) cells and MCF-7 and MCF-7/VP-16 resistant cells characterized as having the MRP (multi-drug resistant associated protein) phenotype. The use of an MTT assay using these cells is recognized as an accepted assay for anti-tumor activity by those in the field.
(§2) In vitro drug cytotoxicities against human breast carcinoma wild-type MCF-7 and MRP-resistant MCF-7/VP-16 cells were assessed by using the MTT reduction assay, as previously reported (Green et al., 1984). The MTT dye was obtained from Sigma Chemical Co. (St. Louis, Mo.). Cells were plated in 96-well microassay culture plates (10^4 cells/well) and grown overnight at 37° C. in a 5% CO2 incubator. Drugs were then added to the wells to achieve a final drug concentration ranging from 0.1 to 50 μg/mL. Four wells were used for each concentration. Control wells were prepared by adding appropriate volumes of calcium- and magnesium-free PBS (pH 7.4). Wells containing culture medium without cells were used as blanks. The plates were incubated at 37° C. in a 5% CO2 incubator for 72 hours. Upon completion of the incubation, 20 μL of stock MTT dye solution (5 mg/mL) was added to each well. After a 4-hour incubation, 100 μL of buffer containing 50% N,N-dimethylformamide and 20% SDS was added to solubilize the MTT formazan. Complete solubilization was achieved by placing the plate in a mechanical shaker for 30 minutes at room temperature. The optical density of each well was then measured with a microplate spectrophotometer at a wavelength of 570 nm. The percent cell viability was calculated by the following equation:
(§3) % cell viability=(OD treated wells/OD control wells)×100
where OD is the mean optical density from four determinations. The percent cell viability values were plotted against the drug concentrations used, and the ID50 was calculated from the curve. Cytotoxicity experiments were repeated at least three times. […]

[2] = tested on: multi-drug-resistant (KBV1) carcinoma cells overexpressing MDR1 (P-gp); assay: MTT cytotoxicity assay, multi-drug-resistant KBV1 cells; assay type: cell-based, human; settings: for RI (resistance index) KBV1 vs KB: KBV1 relative to KB; for ID50 KBV1: MTT, 72 hours incubation, KBV1 cells
Experimental: as §1, §2, §3
(§4) where OD is the mean optical density from four determinations. The percent cell viability values were plotted against the drug concentrations used, and the ID50 was calculated from the curve. Cytotoxicity experiments were repeated at least three times.
(§5) Drug resistance, both de novo and acquired, by human tumors is currently a major factor limiting the effectiveness of chemotherapy. […] Using this system, the inventors evaluate a drug's cytotoxic potential against human tumors and at the same time identify compounds that might have unique activity against MDR tumors (Priebe et al., 1993).

[3] = tested on: human breast carcinoma wild-type MCF-7 cells; assay: MTT cytotoxicity assay, wild-type MCF-7 cells; assay type: cell-based; settings: 72 hours incubation
Experimental: as §1
(§6) In vitro drug cytotoxicities against human breast carcinoma wild-type MCF-7 and MRP-resistant MCF-7/VP-16 cells were assessed by using the MTT reduction assay, as previously reported (Green et al., 1984). The MTT dye was obtained from Sigma Chemical Co. (St. Louis, Mo.). Cells were plated in 96-well microassay culture plates (10^4 cells/well) and grown overnight at 37° C. in a 5% CO2 incubator. Drugs were then added to the wells to achieve a final drug concentration ranging from 0.1 to 50 μg/mL. Four wells were used for each concentration. […] The optical density of each well was then measured with a microplate spectrophotometer at a wavelength of 570 nm. The percent cell viability was calculated by the following equation: […]
(§7) where OD is the mean optical density from four determinations. The percent cell viability values were plotted against the drug concentrations used, and the ID50 was calculated from the curve. […]

[4] = tested on: MCF-7/dox cell line which overexpresses MDR1 gene; assay: MTT cytotoxicity assay, MCF-7/dox cells; assay type: cell-based, human; settings: for RI (resistance index) MCF-7/dox vs MCF-7: MCF-7/dox relative to MCF-7; for ID50 MCF-7/dox: MTT, 72 hours incubation, MCF-7/dox cells
Experimental: [Worded in the source for another cell line; this cell line is reported under the same test.] as §1, §2, §3, §4, §5

several cell lines = assay: In vitro potency comparison in several cell lines; assay type: cell-based; settings: in vitro cytotoxicity
[5] = tested on: MRP-resistant MCF-7/VP-16 cells; assay: MTT cytotoxicity assay, MRP-resistant MCF-7/VP-16 cells; assay type: cell-based, human
Experimental: as §1, §6, §7

Compound	ID50 KB [1]	RI (resistance index) KBV1 vs KB [2]	ID50 KBV1 [2]	ID50 MCF-7 [3]	RI (resistance index) MCF-7/dox vs MCF-7 [4]	ID50 MCF-7/dox [4]	potency relative to daunorubicin analog WP809 (several cell lines)	RI (resistance index) MCF-7/VP-16 vs MCF-7 ([5]; MCF-7/VP-16 relative to MCF-7)	ID50 MCF-7/VP-16 ([5]; MTT, 72 hours incubation, MCF-7/VP-16 cells)
COc1cccc2c1C(=O)c1c(O)c3c(c(O)c1C2=O)C[C@@](O)(C(C)=O)C[C@@H]3O[C@H]1C[C@H](N)[C@H](O)[C@H](C)O1 [DNR, daunorubicin]	220 ± 10 ng/mL (≈ 417 nM)	45	10,000 ± 0 ng/mL						
COc1cccc2c1C(=O)c1c(O)c3c(c(O)c1C2=O)C[C@@](O)(C(=O)CO)C[C@@H]3O[C@H]1C[C@H](N)[C@H](O)[C@H](C)O1 [DOX, doxorubicin]	340 ± 100 ng/mL (≈ 626 nM)	>294	>100,000 ng/mL	300 ± 170 ng/mL and 240 ± 50 ng/mL	>333 and >416	100,000 ng/mL and >100,000 ng/mL			
COc1cccc2c1C(=O)c1c(O)c3c(c(O)c1C2=O)C[C@@](O)(C(=O)CO)C[C@@H]3O[C@H]1C[C@H]2[C@H](OC3CCCN32)[C@H](C)O1 (stereo partly shown) [WP836]	0.65 ± 0.14 ng/mL and 0.5 ± 0.06 ng/mL			0.43 ± 0.06 ng/mL (≈ 0.722 nM)	1.56	0.67 ± 0.15 ng/mL (≈ 1.12 nM)	several fold	1	0.43 ± 0.06 ng/mL (≈ 0.722 nM)
